Columns and labels:
Type in all cases: in vivo
[1] = tested on: Ipomoea purpurea (tall morning glory); test: Test Example-5: herbicidal effect by a foliage treatment after weeds are generated under upland field conditions; conditions: foliage treatment after emergence, about 14 days after treatment, score 0-5
Text: (§1) Using the formulation prepared according to the methods described above, the herbicidal effect of the bicyclic pyrazolinone derivative of the invention according to the methods shown in Test Examples below was examined. The herbicidal effect with respect to the test weeds or the phytotoxicity with respect to the test crops was examined according to the following criteria, and evaluated in six stage scores of 0 to 5. A vat having an area of 81 cm^2 and a depth of 3.5 cm was filled with upland soil, then, seeds of Ipomoea purpurea (tall morning glory), Amaranthus viridis (green amaranthus), Abutilon theophrasti (velvetleaf), Chenopodium album (common lambsquarters), and corn were seeded thereto, and the seeds were covered with soil of about 0.5 cm. While watering was suitably performed on there, the seeds were grown for 14 days. A wettable powder or an emulsifiable concentrate of the compound of the present invention prepared according to Formulation Example was diluted, and a spray treatment was uniformly performed on the foliage portion of the plant so as to be a predetermined dosage in the amount of water of 4000 L per hectare. The herbicidal effect with respect to the test weeds and the phytotoxicity with respect to corn about 14 days after the treatment were evaluated according to the evaluation criteria in six stages of 0 to 5 described above.

[2] = tested on: Chenopodium album (common lambsquarters); test: as above; conditions: foliage treatment after emergence, about 14 days after treatment, score 0-5
Text: as §1

[3] = tested on: Abutilon theophrasti (velvetleaf); test: as above; conditions: foliage treatment after emergence, about 14 days after treatment, score 0-5
Text: as §1

[4] = tested on: Amaranthus viridis (green amaranthus); test: as above; conditions: foliage treatment after emergence, about 14 days after treatment, score 0-5
Text: as §1

[5] = tested on: Chenopodium album (common lambsquarters); test: Test Example-2: herbicidal effect by a soil treatment before weeds are generated under upland field conditions; conditions: application amount 500 g a.i/ha, soil spray treatment before weeds are generated, about 21 days after the treatment, score 0 to 5
Summary of the method: (§2)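 Pre-emergence soil treatment: seeds sown in upland soil and covered with about 0.5 cm soil were sprayed the next day with diluted wettable powder or emulsifiable concentrate at a predetermined dosage. Weed control and corn injury were scored on a 0–5 scale about 21 days after treatment.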

[6] = tested on: Amaranthus viridis (green amaranthus); test: as above; conditions: application amount 500 g a.i/ha, soil spray treatment before weeds are generated, about 21 days after the treatment, score 0 to 5
Summary of the method: as §2

[7] = tested on: Ipomoea purpurea (tall morning glory); test: Test Example-3: herbicidal effect by a treatment before weeds are generated under upland field conditions; conditions: upland soil treatment before emergence, about 21 days after treatment, score 0-5
Text: as §1, with “Next day, a” for “While watering was suitably performed on there, the seeds were grown for 14 days. A”, “covered oil” for “foliage portion of the plant”, “dosage.” for “dosage in the amount of water of 4000 L per hectare.”, “21” for “14”

[8] = tested on: Chenopodium album (common lambsquarters); test: as above; conditions: upland soil treatment before emergence, about 21 days after treatment, score 0-5
Text: as §1, with “Next day, a” for “While watering was suitably performed on there, the seeds were grown for 14 days. A”, “covered oil” for “foliage portion of the plant”, “dosage.” for “dosage in the amount of water of 4000 L per hectare.”, “21” for “14”

[9] = tested on: Abutilon theophrasti (velvetleaf); test: as above; conditions: upland soil treatment before emergence, about 21 days after treatment, score 0-5
Text: as §1, with “Next day, a” for “While watering was suitably performed on there, the seeds were grown for 14 days. A”, “covered oil” for “foliage portion of the plant”, “dosage.” for “dosage in the amount of water of 4000 L per hectare.”, “21” for “14”

[10] = tested on: Amaranthus viridis (green amaranthus); test: as above; conditions: upland soil treatment before emergence, about 21 days after treatment, score 0-5
Text: as §1, with “Next day, a” for “While watering was suitably performed on there, the seeds were grown for 14 days. A”, “covered oil” for “foliage portion of the plant”, “dosage.” for “dosage in the amount of water of 4000 L per hectare.”, “21” for “14”

corn [11] = test: Test Example-3: phytotoxicity by a treatment before weeds are generated under upland field conditions; conditions: upland soil treatment before emergence, about 21 days after treatment, score 0-5
Text: as §1, with “Next day, a” for “While watering was suitably performed on there, the seeds were grown for 14 days. A”, “covered oil” for “foliage portion of the plant”, “dosage.” for “dosage in the amount of water of 4000 L per hectare.”, “21” for “14”

[12] = tested on: Chenopodium album (common lambsquarters); test: Test Example-4: herbicidal effect by a foliage treatment after weeds are generated under upland field conditions; conditions: 500 g a.i/ha, foliage treatment after emergence, about 14 days after treatment, score 0-5
Summary of the method: (§3)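 Upland soil; seeds covered ~0.5 cm, grown 14 d. Foliar spray of diluted WP or EC, predetermined dose, 4000 L water/ha. Herbicidal effect and corn phytotoxicity scored on a six-stage 0–5 scale ~14 d post-treatment.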

[13] = tested on: Abutilon theophrasti (velvetleaf); test: as above; conditions: 500 g a.i/ha, foliage treatment after emergence, about 14 days after treatment, score 0-5
Summary of the method: as §3

[14] = tested on: Amaranthus viridis (green amaranthus); test: as above; conditions: 500 g a.i/ha, foliage treatment after emergence, about 14 days after treatment, score 0-5
Summary of the method: as §3

[15] = tested on: Cyperus difformis (smallflower umbrella plant); test: Test Example-1: herbicidal effect by a treatment before weeds are generated under submerged conditions; conditions: 500 g a.i/ha, pre-emergence treatment, about 15 days after treatment, score 0-5
Summary of the method: (§4)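 Pre-emergence, submerged paddy soil; WP/EC formulation diluted, applied to floodwater at seeding day at predetermined dose; visual herbicidal score 0–5 at ~15 days after treatment.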

[16] = tested on: Echinochloa oryzicola (barnyard grass); test: as above; conditions: 500 g a.i/ha, pre-emergence treatment, about 15 days after treatment, score 0-5
Summary of the method: as §4

[17] = tested on: Monochoria vaginalis (monochoria); test: as above; conditions: 500 g a.i/ha, pre-emergence treatment, about 15 days after treatment, score 0-5
Summary of the method: as §4

[18] = tested on: Scirpus juncoides (bulrush); test: as above; conditions: 500 g a.i/ha, pre-emergence treatment, about 15 days after treatment, score 0-5
Summary of the method: as §4

[19] = tested on: other annual broad leaf weeds (Lindernia procumbens, Rotala indica, Elatine triandra); test: as above; conditions: 500 g a.i/ha, pre-emergence treatment, about 15 days after treatment, score 0-5
Summary of the method: as §4

[20] = tested on: Eleocharis acicularis (needle spikerush); test: as above; conditions: 500 g a.i/ha, pre-emergence treatment, about 15 days after treatment, score 0-5
Summary of the method: as §4

corn [21] = test: Test Example-5: phytotoxicity by a foliage treatment after weeds are generated under upland field conditions; conditions: foliage treatment after emergence, about 14 days after treatment, score 0-5
Text: as §1

corn [22] = test: Test Example-2: phytotoxicity by a soil treatment before weeds are generated under upland field conditions; conditions: application amount 500 g a.i/ha, soil spray treatment before weeds are generated, about 21 days after the treatment, score 0 to 5
Summary of the method: as §2

corn [23] = test: Test Example-4: phytotoxicity by a foliage treatment after weeds are generated under upland field conditions; conditions: 500 g a.i/ha, foliage treatment after emergence, about 14 days after treatment, score 0-5
Summary of the method: as §3

Structure (SMILES)	Herbicidal effect Ipomoea purpurea ([1]; 12.5 g a.i/ha)	Herbicidal effect Chenopodium album ([2]; 12.5 g a.i/ha)	Herbicidal effect Abutilon theophrasti ([3]; 12.5 g a.i/ha)	Herbicidal effect Amaranthus viridis ([4]; 12.5 g a.i/ha)	Herbicidal effect Ipomoea purpurea ([7]; 50 g a.i/ha)	Herbicidal effect Chenopodium album ([8]; 50 g a.i/ha)	Herbicidal effect Abutilon theophrast ([9]; 50 g a.i/ha)	Herbicidal effect Amaranthus viridis ([10]; 50 g a.i/ha)	Phytotoxicity Corn (corn [11]; 50 g a.i/ha)	Herbicidal effect Chenopodium album [12]	Herbicidal effect Abutilon theophrast [13]	Herbicidal effect Amaranthus viridis [14]	Phytotoxicity Corn (corn [21]; 12.5 g a.i/ha)	Phytotoxicity Corn (corn [23])	further results
C#CCOc1cc(-c2c(Cl)n3n(c2=O)CCOCC3)c(Cl)cc1Cl [Example 1-306]	5 (Herbicidal effect/phytotoxicity was 90% or greater)	5 (Herbicidal effect/phytotoxicity was 90% or greater)	5 (Herbicidal effect/phytotoxicity was 90% or greater)	5 (Herbicidal effect/phytotoxicity was 90% or greater)	4 (Herbicidal effect/phytotoxicity was 70% to 90%)	5 (Herbicidal effect/phytotoxicity was 90% or greater)	3 (Herbicidal effect/phytotoxicity was 50% to 70%)	5 (Herbicidal effect/phytotoxicity was 90% or greater)	0 (Herbicidal effect/phytotoxicity was 0% to 10%)	5 (Herbicidal effect/phytotoxicity was 90% or greater)	5 (Herbicidal effect/phytotoxicity was 90% or greater)	5 (Herbicidal effect/phytotoxicity was 90% or greater)	0 (Herbicidal effect/phytotoxicity was 0% to 10%)	1 (Herbicidal effect/phytotoxicity was 10% to 30%)	Herbicidal effect Ipomoea purpurea ([1]; 25 g a.i/ha): 5 (Herbicidal effect/phytotoxicity was 90% or greater); Herbicidal effect Chenopodium album ([2]; 25 g a.i/ha): 5 (Herbicidal effect/phytotoxicity was 90% or greater); Herbicidal effect Abutilon theophrasti ([3]; 25 g a.i/ha): 5 (Herbicidal effect/phytotoxicity was 90% or greater); Herbicidal effect Amaranthus viridis ([4]; 25 g a.i/ha): 5 (Herbicidal effect/phytotoxicity was 90% or greater); Herbicidal effect Chenopodium album [5]: 5 (Herbicidal effect/phytotoxicity was 90% or greater); Herbicidal effect Amaranthus viridis [6]: 5 (Herbicidal effect/phytotoxicity was 90% or greater); Herbicidal effect Ipomoea purpurea ([7]; 100 g a.i/ha): 5 (Herbicidal effect/phytotoxicity was 90% or greater); Herbicidal effect Chenopodium album ([8]; 100 g a.i/ha): 5 (Herbicidal effect/phytotoxicity was 90% or greater); Herbicidal effect Abutilon theophrast ([9]; 100 g a.i/ha): 4 (Herbicidal effect/phytotoxicity was 70% to 90%); Herbicidal effect Amaranthus viridis ([10]; 100 g a.i/ha): 5 (Herbicidal effect/phytotoxicity was 90% or greater); Phytotoxicity Corn (corn [11]; 100 g a.i/ha): 1 (Herbicidal effect/phytotoxicity was 10% to 30%); Herbicidal effect Cyperus difformis [15]: 5 (Herbicidal effect/phytotoxicity was 90% or greater); Herbicidal effect Echinochloa oryzicola [16]: 5 (Herbicidal effect/phytotoxicity was 90% or greater); Herbicidal effect Monochoria vaginalis [17]: 5 (Herbicidal effect/phytotoxicity was 90% or greater); Herbicidal effect Scirpus juncoides [18]: 5 (Herbicidal effect/phytotoxicity was 90% or greater); Herbicidal effect Broadleaf weed [19]: 5 (Herbicidal effect/phytotoxicity was 90% or greater); Herbicidal effect Eleocharis acicularis [20]: 5 (Herbicidal effect/phytotoxicity was 90% or greater); Phytotoxicity Corn (corn [21]; 25 g a.i/ha): 0 (Herbicidal effect/phytotoxicity was 0% to 10%); Phytotoxicity Corn (corn [22]): 1 (Herbicidal effect/phytotoxicity was 10% to 30%)
COC(=O)C=C(COc1cc(-c2c(Cl)n3n(c2=O)CCOCC3)c(F)cc1Cl)OC (mixture of isomers) [Example 2-3]	5 (Herbicidal effect/phytotoxicity was 90% or greater)	5 (Herbicidal effect/phytotoxicity was 90% or greater)	5 (Herbicidal effect/phytotoxicity was 90% or greater)	5 (Herbicidal effect/phytotoxicity was 90% or greater)	2 (Herbicidal effect/phytotoxicity was 30% to 50%)	4 (Herbicidal effect/phytotoxicity was 70% to 90%)	5 (Herbicidal effect/phytotoxicity was 90% or greater)	5 (Herbicidal effect/phytotoxicity was 90% or greater)	0 (Herbicidal effect/phytotoxicity was 0% to 10%)	5 (Herbicidal effect/phytotoxicity was 90% or greater)	5 (Herbicidal effect/phytotoxicity was 90% or greater)	5 (Herbicidal effect/phytotoxicity was 90% or greater)	0 (Herbicidal effect/phytotoxicity was 0% to 10%)	1 (Herbicidal effect/phytotoxicity was 10% to 30%)	
